According to the supplement of paper PMC11061612:

How the values were obtained:
Experiment in all cases: Bliss excess, mean over the matrix (fraction); higher = more synergy
[1] = system: NCI-H3122 (Lung Adenocarcinoma)
Method in brief: (§1)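 After 24 hours at 37°C and 5% CO2 in 1536-well plates, cells in DMEM/F12 or RPMI plus 10% FBS received two-drug dose matrices for 72 hours. Viability came from CellTiter-Glo 2.0 luminescence and was scaled as inhibition, anchored at 0 by vehicle wells and at 1 by blank wells. Combination Emax is taken as the second-highest inhibition in the matrix, and Bliss excess as the observed combination effect less EA + EB − EA·EB, with EA and EB the single-agent effects.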

[2] = system: KU812 (Chronic Myelogenous Leukemia)
Method in brief: as §1

[3] = system: H9 (T-Cell Non-Hodgkin's Lymphoma)
Method in brief: as §1

[4] = system: MN-60 (B-Lymphoblastic Leukemia)
Method in brief: as §1

[5] = system: PC-3 (Prostate Carcinoma)
Method in brief: as §1

[6] = system: VMRC-RCZ (Kidney Carcinoma)
Method in brief: as §1

[7] = system: NCCIT (Other Solid Carcinomas)
Method in brief: as §1

[8] = system: MOG-G-CCM (Low Grade Glioma)
Method in brief: as §1

[9] = system: SK-GT-4 (Esophageal Adenocarcinoma)
Method in brief: as §1

[10] = system: KYSE-270 (Esophageal Squamous Cell Carcinoma)
Method in brief: as §1

[11] = system: DAN-G (Pancreatic Carcinoma)
Method in brief: as §1

[12] = system: NCI-H526 (Small Cell Lung Carcinoma)
Method in brief: as §1

[13] = system: CHSA8926 (Chondrosarcoma)
Method in brief: as §1

[14] = system: DMS-114 (Small Cell Lung Carcinoma)
Method in brief: as §1

[15] = system: ST486 (Burkitt's Lymphoma)
Method in brief: as §1

[16] = system: HCC1419 (Breast Carcinoma)
Method in brief: as §1

RD (Rhabdomyosarcoma) = system: RD (Rhabdomyosarcoma)
Method in brief: as §1

[17] = system: SUP-B15 (B-Lymphoblastic Leukemia)
Method in brief: as §1

[18] = system: CW-2 (Colorectal Carcinoma)
Method in brief: as §1

[19] = system: HCC1187 (Breast Carcinoma)
Method in brief: as §1

| Structure (SMILES) | Bliss excess [1] | Bliss excess [2] | Bliss excess [3] | Bliss excess [4] | Bliss excess [5] | Bliss excess [6] | Bliss excess [7] | Bliss excess [8] | Bliss excess [9] | Bliss excess [10] | Bliss excess [11] | Bliss excess [12] | Bliss excess [13] | Bliss excess [14] | Bliss excess [15] | Bliss excess [16] | Bliss excess (RD (Rhabdomyosarcoma)) | Bliss excess [17] | Bliss excess [18] | Bliss excess [19] |
| --- | --- | --- | --- | --- | --- | --- | --- | --- | --- | --- | --- | --- | --- | --- | --- | --- | --- | --- | --- | --- |
| CC1(C)CCC(CN2CCN(c3ccc(C(=O)NS(=O)(=O)c4ccc(NCC5CCOCC5)c([N+](=O)[O-])c4)c(Oc4cnc5[nH]ccc5c4)c3)CC2)=C(c2ccc(Cl)cc2)C1 [Venetoclax] + C1CN(CCC1(C(=O)N[C@@H](CCO)C2=CC=C(C=C2)Cl)N)C3=NC=NC4=C3C=CN4 [Capivasertib] (first compound max 1 µM, 7x7, partner max 3 µM) | -0.0592 | -0.046 | -0.02 | -0.0485 | -0.046 | -0.0236 | -0.0285 | -0.0568 | -0.0728 | 0.0002 | -0.0689 | -0.0095 | -0.0364 | -0.0467 | -0.0348 | -0.057 | -0.0226 | 0.0077 | -0.0259 | -0.0227 |
| CC1(C)CCC(CN2CCN(c3ccc(C(=O)NS(=O)(=O)c4ccc(NCC5CCOCC5)c([N+](=O)[O-])c4)c(Oc4cnc5[nH]ccc5c4)c3)CC2)=C(c2ccc(Cl)cc2)C1 [Venetoclax] + C=CCn1c(=O)c2cnc(Nc3ccc(N4CCN(C)CC4)cc3)nc2n1-c1cccc(C(C)(C)O)n1 [AZD1775] (first compound max 1 µM, partner max 1 µM) | -0.0505 | 0.0294 | -0.0295 | -0.0285 | 0.0286 | 0.0418 | 0.0522 | 0.0303 | 0.0384 | 0.0742 | -0.0114 | -0.0183 | -0.0333 | 0.0056 | 0.108 | -0.0261 | -0.0163 | 0.0509 | -0.0091 | -0.0522 |
| CC1(C)CCC(CN2CCN(c3ccc(C(=O)NS(=O)(=O)c4ccc(NCC5CCOCC5)c([N+](=O)[O-])c4)c(Oc4cnc5[nH]ccc5c4)c3)CC2)=C(c2ccc(Cl)cc2)C1 [Venetoclax] + CCN(CCO)CCCOc1ccc2c(Nc3cc(CC(=O)Nc4cccc(F)c4)[nH]n3)ncnc2c1 [AZD2811] (first compound max 1 µM, 7x7, partner max 1 µM) | -0.0229 | -0.0433 | -0.0616 | -0.0927 | -0.0668 | -0.0391 | 0.0139 | -0.0061 | -0.0295 | -0.0072 | -0.0106 | 0.138 | 0.0042 | -0.0334 | -0.0299 | -0.0448 | -0.0311 | 0.0132 | 0.0269 | -0.0165 |
| CC1(C)CCC(CN2CCN(c3ccc(C(=O)NS(=O)(=O)c4ccc(NCC5CCOCC5)c([N+](=O)[O-])c4)c(Oc4cnc5[nH]ccc5c4)c3)CC2)=C(c2ccc(Cl)cc2)C1 [Venetoclax] + CN(C)CCCOc1ccc(-c2ccc3ncc4c(c3c2)n(C2CCOCC2)c(=O)n4C)cn1 [AZD0156] (first compound max 1 µM, 7x7, partner max 1 µM) | -0.0656 | -0.0404 | -0.0035 | -0.0045 | -0.0363 | -0.0492 | 0.0086 | -0.0198 | -0.0544 | 0.0107 | -0.0268 | 0.0393 | -0.0249 | -0.0436 | 0.0106 | -0.0156 | -0.0332 | -0.0392 | 0.0285 | -0.0071 |
| CC1(C)CCC(CN2CCN(c3ccc(C(=O)NS(=O)(=O)c4ccc(NCC5CCOCC5)c([N+](=O)[O-])c4)c(Oc4cnc5[nH]ccc5c4)c3)CC2)=C(c2ccc(Cl)cc2)C1 [Venetoclax] + COc1cc(Nc2ncc3c(n2)-c2ccc(Cl)cc2C(c2c(F)cccc2OC)=NC3)ccc1C(=O)O [Alisertib] (first compound max 1 µM, 7x7, partner max 10 µM) | -0.0278 | -0.0121 | -0.0674 | 0.0368 | -0.0536 | -0.0292 | 0.0159 | 0.0552 | -0.107 | -0.016 | -0.0024 | 0.194 | -0.025 | 0.0341 | -0.133 | -0.0573 | 0.0506 | 0.0151 | -0.0094 | -0.0999 |
| CC1(C)CCC(CN2CCN(c3ccc(C(=O)NS(=O)(=O)c4ccc(NCC5CCOCC5)c([N+](=O)[O-])c4)c(Oc4cnc5[nH]ccc5c4)c3)CC2)=C(c2ccc(Cl)cc2)C1 [Venetoclax] + C[C@@H]1COCCN1C2=NC(=NC(=C2)C3(CC3)[S@](=N)(=O)C)C4=C5C=CNC5=NC=C4 [AZD6738] (first compound max 1 µM, 7x7, partner max 10 µM) | -0.0649 | -0.0055 | 0.0113 | 0.0434 | -0.035 | -0.0262 | -0.0355 | -0.045 | -0.0364 | -0.0188 | -0.0536 | 0.0144 | -0.0216 | -0.0338 | -0.0369 | -0.0479 | 0.002 | 0.0383 | 0.0258 | -0.0095 |
| CC1(C)CCC(CN2CCN(c3ccc(C(=O)NS(=O)(=O)c4ccc(NCC5CCOCC5)c([N+](=O)[O-])c4)c(Oc4cnc5[nH]ccc5c4)c3)CC2)=C(c2ccc(Cl)cc2)C1 [Venetoclax] + C[C@@H](Nc1cc(F)cc(F)c1)c1cc(C(=O)N(C)C)cc2c(=O)cc(N3CCOCC3)oc12 [AZD8186] (first compound max 1 µM, 7x7, partner max 3 µM) | -0.0311 | -0.024 | -0.0159 | 0.044 | 0.0065 | -0.0215 | -0.0336 | 0.0384 | -0.0263 | -0.0186 | -0.0346 | 0.033 | 0.0214 | -0.0297 | -0.0686 | -0.0316 | 0.0032 | -0.0587 | -0.007 | -0.0069 |
| CC1(C)CCC(CN2CCN(c3ccc(C(=O)NS(=O)(=O)c4ccc(NCC5CCOCC5)c([N+](=O)[O-])c4)c(Oc4cnc5[nH]ccc5c4)c3)CC2)=C(c2ccc(Cl)cc2)C1 [Venetoclax] + Cc1cc2ncnn2cc1Nc1ncc2c(n1)n(C1CCOCC1)c(=O)n2C [AZD7648] (first compound max 1 µM, 7x7, partner max 10 µM) | -0.0201 | -0.0174 | -0.0194 | -0.0125 | -0.0245 | -0.0696 | -0.0326 | -0.0528 | -0.093 | -0.0281 | -0.0106 | 0.0079 | -0.0023 | -0.0205 | -0.0376 | -0.0116 | -0.0373 | -0.0374 | 0.0049 | -0.0061 |
| CC1(C)CCC(CN2CCN(c3ccc(C(=O)NS(=O)(=O)c4ccc(NCC5CCOCC5)c([N+](=O)[O-])c4)c(Oc4cnc5[nH]ccc5c4)c3)CC2)=C(c2ccc(Cl)cc2)C1 [Venetoclax] + Cn1cnc2c(F)c(Nc3ccc(Br)cc3Cl)c(C(=O)NOCCO)cc21 [Selumetinib] (first compound max 1 µM, 7x7, partner max 3 µM) | -0.0309 | -0.0125 | 0.0054 | -0.0478 | -0.0484 | -0.0422 | -0.0252 | -0.0697 | -0.0512 | -0.0202 | -0.0459 | -0.011 | -0.0455 | -0.0371 | -0.141 | -0.0413 | -0.0425 | 0.108 | 0.0239 | -0.0161 |
